In US20180169047A1, “AMINO ACID COMPOSITIONS AND METHODS FOR THE TREATMENT OF MUSCLE DISEASES AND DISORDERS” (AXCELLA HEALTH INC., priority 2016, published 2018):

Assays:
mTORC1 = mTORC1 activity assay: rpS6 phosphorylation (AlphaScreen SureFire) in C2C12 myotubes; type: cell-based, mouse; set-up: key to mTOR: statistically significant assay result: statistically significant assay results between 2X and 5X doses; ns - not significant; NT - not tested; settings: for Avg fold change of intracellular rpS6 phosphorylation (P-rpS6) compared to untreated cells: C2C12 myotubes, 30 min, normalized to total protein; for mTOR: statistically significant assay result: between 2X and 5X doses, compared to untreated control
Text: Metabolism is controlled by the mTORC1 signaling complex, an essential protein kinase that regulates cellular processes such as protein synthesis and autophagy. A number of distinct signals control mTORC1 activity, including amino acids and growth factors like insulin, and proper regulation is necessary for the maintenance of muscle mass. Dysregulation of mTORC1 activity is associated with muscle wasting (atrophy) in many diseases, and conversely, addition of muscle mass (hypertrophy) requires protein synthesis-inducing mTORC1 signaling. The ability of different amino acids to induce mTORC1 signaling in myotubes was assessed using an alpha-elisa screen for phosphorylated ribosomal protein S6 (P-rpS6), an important substrate downstream of mTORC1 involved in promoting protein synthesis.
In this example, murine muscle cells were incubated with a composition including amino acids and assessed for mTORC1 activation. C2C12, mouse muscle cells, were obtained from ATCC (CRL-1772, Manassas, VA). The cells were seeded on day 0 at 1.0E4 cells per well in 96-well TC-treated microplates (Corning, Corning, NY) in Dulbecco's Modified Eagle Medium (DMEM, Corning) supplemented with 10% fetal bovine serum (Corning) and 0.2% Primocin (InVivoGen, San Diego, Calif.) and incubated for 48 hours at 37° C., 5% CO2. On day 2, the medium was changed to DMEM (Corning) supplemented with 2% horse serum (Horse Serum, New Zealand origin, ThermoFisher, Waltham, MA) and 0.2% Primocin. On day 5, the medium was replaced with fresh DMEM supplemented with 2% horse serum and 0.2% Primocin.
On day 7, the DMEM supplemented with 2% horse serum and 0.2% Primocin was replaced with amino acid free DMEM (US Biologicals, Salem, Mass.) containing a defined custom amino acid concentration based on 0.5× the mean physiological concentrations in blood based on values published in the Human Metabolome Database (HMDB (Wishart DS, Tzur D, Knox C, et al., HMDB: the Human Metabolome Database. Nucleic Acids Res. 2007 January; 35 (Database issue):D521-6. 17202168), with 25 mM Glucose, 1 mM Sodium Pyruvate and incubated for 2 hours at 37° C., 5% CO2. Next, the cell medium was replaced with amino acid free DMEM (US Biologicals, Salem, Mass.) containing a defined custom amino acid concentration based on 0.5× the mean physiological concentrations in blood based on values published in the HMDB and a dose curve of defined amino acid compositions listed in Table 5 at 4 doses relative to plasma levels (1×, 2×, 5× and 10×; as defined by mean amino acid concentrations in the HMDB database). Combinations containing N-acetylcysteine were dosed with 0.2 mM. Cells were treated for 30 min at 37° C., 5% CO2. After treatment, the cells were washed lx in 100uL cold phosphate-buffered saline 1×, pH 7.2 (PBS, ThermoFisher). For the detection of the intracellular rpS6 phosphorylation, the AlphaScreen SureFire cellular kinase assay kit (rpS6 ([…]) and the AlphaScreen protein A kit (PerkinElmer, Waltham, Mass.) were used.
Data are presented as fold change of intracellular rpS6 phosphorylation in C2C12 myotubes normalized to the total protein amount compared to untreated cells. […] Statistical significance was determined by one-way ANOVA for each composition dose relative to untreated.

C2C12 myotubes = assay: Myotube growth assay: myotube area in C2C12 myotubes; type: cell-based, murine; set-up: key to GROWTH: statistically significant assay result: statistically significant assay results between 2X and 5X doses; ns - not significant; NT - not tested; settings: for myotube growth dose response, Avg myotube area normalized to nuclear count: untreated = 1.000; for GROWTH: statistically significant assay result: between 2X and 5X doses, compared to untreated control
Text: Myotubes are multi-nucleated and elongated cells that express master regulators of skeletal muscle gene expression including MyoD and Myogenin. Myotubes are formed by differentiating myoblasts (muscle progenitor cells) for approximately 1 week. Once formed, myotubes size can be promoted (e.g. insulin) or inhibited (e.g. myostatin) with various molecules in order to assess effects on muscle size in vitro. C2C12 cells are commonly-used murine myogenic cells that upon differentiation form myotubes. C2C12 myotubes were used to test whether specific amino acid compositions can promote growth in vitro.
C2C12 murine myoblast cells (ATCC CRL-1772) were seeded on day 0 at 1.0E4 cells per well in collagen I coated 96-well optical polymer microplates (ThermoFisher) in Dulbecco's Modified Eagle Medium (DMEM, Corning) supplemented with 10% heat inactivated fetal bovine serum (HI-FBS, Atlanta Biologicals) and 0.2% Primocin (InVivoGen) and incubated overnight at 37° C., 5% CO2. On day 1, media was washed and differentiation media (DMEM supplemented with 2% horse serum) was added to the cells and fresh differentiation media was also applied on Day 3. On Day 6, cells were washed with amino acid-free DMEM and then treated with basal growth media containing 0.2% dialyzed FBS and all amino acids at 0.25× concentrations found in plasma based on values reported in the Human Metabolome Database (HMDB).
Fresh growth media and AA treatments were applied a second time on Day 8. On day 10, media was removed and cells were incubated in pre-warmed 4% Paraformaldehyde in PBS for 12 mins at room temperature and then washed 3× in PBS. Immunostaining with MHC (MF-20, University of Iowa Developmental Hybridoma Studies bank) was performed according to cell signaling general immunofluorescence protocol. Briefly, fixed cells were incubated in blocking buffer (5% normal goat serum 0.3% triton PBS) for 30-60 minutes, and then incubated overnight at 4° C. in primary antibody 1:1000 in antibody dilution buffer (1% BSA 0.3% triton in PBS). The next day the plate was equilibrated to room temperature, washed 3 times for 5 minutes in room temperature PBS and then with secondary antibody (Fab′ anti-mouse Alexa488, 1:2000) in antibody dilution buffer for 1-2 hours. Cells were washed 2 times for 5 minutes, incubated in Hoechst stain (Mol Probes 1:4000) for 10 minutes at room temperature, and washed an additional 2 times five minutes each in PBS. Molecular device HCS was used for image acquisition and analysis. Imaging was performed with a 10× wide field objective at both GFP and UV channels (FITC and DAPI) and analysis was performed using a modified version of the angiogenesis module in the MetaExpress Software measuring average total myotube area, myotube breadth, total nuclear counts, fused nuclear counts, and unfused nuclear counts.

[1] = system: C2C12 murine myoblast cells; assay: Myogenesis assay: myotube differentiation of C2C12 myoblasts, MHC immunostaining; type: cell-based; set-up: key to MYOGENESIS: statistically significant assay result: statistically significant assay results between 2X and 5X doses; ns - not significant; NT - not tested; settings: for myogenesis dose response, Avg fold-change to untreated: C2C12 myoblasts differentiated 4 days
Text: Myogenesis is the process of forming skeletal muscle fibers (myofibers) which contain the minimal contractile units (sarcomeres) responsible for force transduction and load bearing in higher eukaryotes. During development single nucleated myogenic cells fuse, differentiate, and induce expression of the cytoskeletal complexes required for muscle contraction. A highly similar process is induced in response to muscle injury where satellite cells, or skeletal muscle stem cells, are activated, differentiate and fuse with damaged myofibers, thereby contributing myonuclei and supporting muscle repair. C2C12 cells are murine myogenic cells that, upon differentiation, fuse to form multi-nucleated myotubes (primitive myofibers) that express master regulators of muscle-specific gene expression, for example myosin heavy chain, a critical component of sarcomeres. C2C12 cells were selected as a model of myogenesis and used to test whether specific amino acid compositions would promote formation of myotubes and expression of the myotube-specific marker myosin heavy chain.
C2C12 murine myoblast cells were obtained from ATCC (CRL-1772) and seeded on day 0 at 1.0E4 cells per well in collagen I coated 96-well optical polymer microplates (ThermoFisher) in Dulbecco's Modified Eagle Medium (DMEM, Corning) supplemented with 10% heat inactivated fetal bovine serum (HI-FBS, Atlanta Biologicals) and 0.2% Primocin (InVivoGen) and incubated overnight at 37° C., 5% CO2. […] Cells were differentiated for 4 days at 37° C., 5% CO2 with a media replenishment and an additional amino acid composition or control treatment on Day 3. On day 5, the media was removed and cells were incubated in pre-warmed 4% Paraformaldehyde in PBS for 12 mins at room temperature and then washed 3× in PBS.
Immunostaining with MHC (MF-20, University of Iowa Developmental Hybridoma Studies bank) was performed according to cell signaling general immunofluorescence protocol. Briefly, fixed cells were incubated in blocking buffer (5% normal goat serum 0.3% triton PBS) for 30 to 60 minutes, and then incubated overnight at 4° C. in primary antibody 1:1000 in antibody dilution buffer (1% BSA 0.3% triton in PBS). The next day the plate was equilibrated to room temperature, washed 3 times for 5 minutes in room temperature PBS and then with secondary antibody (Fab' anti-mouse Alexa488, 1:2000) in antibody dilution buffer for 1-2 hours. Cells were washed two times for 5 minutes, incubated in Hoechst stain (Mol Probes 1:4000) for 10 minutes at room temperature, and washed an additional two times for five minutes each in PBS. Molecular device HCS was used for image acquisition and analysis. Imaging was performed with a 10× wide field objective at both GFP and UV channels (FITC and DAPI) and analysis was performed using a custom module in the MetaExpress Software measuring average FITC intensity, integrated FITC intensity, and nuclear counts.
The data is the average of 3 independent experiments.

[2] = dose 1X relative to plasma levels
[3] = dose 2X relative to plasma levels
[4] = dose 5X relative to plasma levels
[5] = dose 10X relative to plasma levels
[6] = C2C12 myotubes, dose 1.25X relative to plasma levels
[7] = C2C12 myotubes, dose 2.5X relative to plasma levels
[8] = C2C12 myotubes, dose 5X relative to plasma levels
[9] = C2C12 myotubes, dose 10X relative to plasma levels

CC(=O)N[C@@H](CS)C(=O)O [Nac, N-acetylcysteine]
Avg fold change of intracellular rpS6 phosphorylation (P-rpS6) compared to untreated cells (mTORC1; [2]): 0.9198 fold change | Avg fold change of intracellular rpS6 phosphorylation (P-rpS6) compared to untreated cells (mTORC1; [3]): 0.8626 fold change | Avg fold change of intracellular rpS6 phosphorylation (P-rpS6) compared to untreated cells (mTORC1; [4]): 0.8741 fold change | Avg fold change of intracellular rpS6 phosphorylation (P-rpS6) compared to untreated cells (mTORC1; [5]): 0.9485 fold change | mTOR: statistically significant assay result (mTORC1): ns | myotube growth dose response, Avg myotube area normalized to nuclear count (C2C12 myotubes; [6]): 1.121 | myotube growth dose response, Avg myotube area normalized to nuclear count (C2C12 myotubes; [7]): 1.036 | myotube growth dose response, Avg myotube area normalized to nuclear count (C2C12 myotubes; [8]): 1.153 | myotube growth dose response, Avg myotube area normalized to nuclear count (C2C12 myotubes; [9]): 1.267 | GROWTH: statistically significant assay result (C2C12 myotubes): ns

NC(=O)CC[C@H](N)C(=O)O [Q, glutamine]
Avg fold change of intracellular rpS6 phosphorylation (P-rpS6) compared to untreated cells (mTORC1; [2]): 1.052 fold change | Avg fold change of intracellular rpS6 phosphorylation (P-rpS6) compared to untreated cells (mTORC1; [3]): 0.9176 fold change | Avg fold change of intracellular rpS6 phosphorylation (P-rpS6) compared to untreated cells (mTORC1; [4]): 0.8748 fold change | Avg fold change of intracellular rpS6 phosphorylation (P-rpS6) compared to untreated cells (mTORC1; [5]): 0.8139 fold change | mTOR: statistically significant assay result (mTORC1): ns | myogenesis dose response, Avg fold-change to untreated ([1]; dose 1.25X relative to HMDB plasma levels): 1.127 fold-change | myogenesis dose response, Avg fold-change to untreated ([1]; dose 2.5X relative to HMDB plasma levels): 1.066 fold-change | myogenesis dose response, Avg fold-change to untreated ([1]; dose 5X relative to HMDB plasma levels): 1.087 fold-change | myogenesis dose response, Avg fold-change to untreated ([1]; dose 10X relative to HMDB plasma levels): 1.041 fold-change | MYOGENESIS: statistically significant assay result ([1]; between 2X and 5X doses, compared to untreated control): ns | area of myotubes in the culture well (in words) (C2C12 myotubes; C2C12 myotubes, across two experiments): no effect or were inhibitory | myotube growth dose response, Avg myotube area normalized to nuclear count (C2C12 myotubes; [6]): 1.235 | myotube growth dose response, Avg myotube area normalized to nuclear count (C2C12 myotubes; [7]): 1.202 | myotube growth dose response, Avg myotube area normalized to nuclear count (C2C12 myotubes; [8]): 1.075 | myotube growth dose response, Avg myotube area normalized to nuclear count (C2C12 myotubes; [9]): 1.077 | GROWTH: statistically significant assay result (C2C12 myotubes): ns
